# Molecular target: AMPA receptors
# Test: Binding of 3H-AMPA to rat cerebral membrane material
# Conditions: displacement of 3H-AMPA, membrane material from rat cerebra, incubated on ice for 60 minutes
# Procedure: The pharmacological activity of the compounds I according to the invention was investigated on isolated membrane material from rat brains. For this purpose, the membrane material was incubated in the presence of the substances according to the invention with the radiolabeled substances ^3 H-2-amino-3-hydroxy-5-methyl-4-isoxazolepropionic acid (^3 H-AMPA), ^3 H-5,7-dichlorokynurenic acid or ^3 H-kainate. During this the said radioligands bind in each case to the glutamate receptors specific for them, ie. to AMPA receptors, (^3 H-5,7-dichlorokynurenic acid-binding) NMDA receptors and kainate receptors respectively. After the incubation, the membranes with the receptor-bound radioligands were separated from the free radioligands, and the radioactivity associated with the membranes as measured by liquid scintillation counting. The concentration of receptor-bound ligands, and the extent of displacement of a given radioligand by particular concentrations of the compounds I according to the invention, can be determined from the radioactivity of the membranes. […]
row,SMILES,Ki [µM]
1,"O=C(NCc1ccn(-c2cc3[nH]c(=O)c(=O)[nH]c3cc2[N+](=O)[O-])c1)c1ccncc1 [Example 3, acetate]",< 10
2,"O=C(O)Cn1c(=O)c(=O)[nH]c2cc([N+](=O)[O-])c(-n3ccc(CN4CCCCC4)c3)cc21 [Example 14, 1-Carboxymethyl-6-nitro-7-(3-((1-piperidinyl)methyl)-1-pyrrolyl)quinoxaline-2,3(1H,4H)-dione]",< 10
